Consider eleven compounds from ChEMBL document CHEMBL5512632, “Unlocking the potential of 1,4-naphthoquinones: A comprehensive review of their anticancer properties” (Eur J Med Chem, 2024).

The structures appear in SMILES notation.

The test system of assay [1] is SK-MEL-28. As to the kind of experiment: Cytotoxicity against human SK-MEL-28 cells incubated for 48 hrs by MTT assay. The note with it: SK-MEL-28, 48 h. The format is functional, cell-based. For orientation: Formazan colour is commonly taken as a measure of viable cells.
Assay [2] has as its system HEC-1-A. As to the kind of experiment: Cytotoxicity against human HEC-1-A cells incubated for 48 hrs by MTT assay. The format is functional, cell-based.
In assay [3] the test system is Calu-1. In words: Cytotoxicity against human Calu-1 cells incubated for 48 hrs by MTT assay. The format is functional, cell-based. The following applies: Calu-1, 48 h.
Assay [4] concerns MDA-MB-231. As to the kind of experiment: Cytotoxicity against human MDA-MB-231 cells incubated for 48 hrs by XTT assay. The note with it: MDA-MB-231, 48 h. The assay is classed as functional, cell-based.
In assay [5] the test system is MOLT-3. As to the kind of experiment: Cytotoxicity against human MOLT-3 cells incubated for 48 hrs by XTT assay. The format is functional, cell-based. The following applies: MOLT-3, 48 h.
For assay [6], the system named is MCF7. As to the kind of experiment: Growth inhibition of human MCF7 cells by Sulforhodamine B assay. The assay is classed as functional.
Assay [7] has as its system UACC-62. In words: Growth inhibition of human UACC-62 cells by Sulforhodamine B assay. The assay is classed as functional.
The test system of assay [8] is PC-3. As to the kind of experiment: Growth inhibition of human PC-3 cells by Sulforhodamine B assay. The format is functional. (The SRB assay estimates cell density from bound dye.)
Assay [9] deals with TK-10. As to the kind of experiment: Growth inhibition of human TK-10 cells by Sulforhodamine B assay. The format is functional.
Assay [10] deals with HT-29. As to the kind of experiment: Antiproliferative activity against human HT-29 cells assessed as reduction in cell viability incubated for 24 hrs by MTT assay. The format is functional, cell-based. The following applies: HT-29, 24 h.
Assay [11] deals with A549. As to the kind of experiment: Antiproliferative activity against human A549 cells assessed as inhibition of cell growth incubated for 24 hrs by trypan blue exclusion assay. The format is functional, cell-based. The following applies: A549, 24 h.
The subject of assay [12] is HepG2. In words: Antiproliferative activity against human HepG2 cells assessed as inhibition of cell growth incubated for 24 hrs by MTT assay. The following applies: HepG2, 24 h. The assay is classed as functional, cell-based.
Assay [13] has as its system Hep 3B2. As to the kind of experiment: Antiproliferative activity against human Hep3B cells assessed as inhibition of cell growth incubated for 24 hrs by MTT assay. The format is functional, cell-based.
Assay [14] deals with Huh-7. In words: Antiproliferative activity against human Huh-7 cells assessed as inhibition of cell growth incubated for 24 hrs by MTT assay. The format is functional, cell-based. The following applies: Huh-7, 24 h.
Assay [15] is described as follows: Antiproliferative activity against human LA-N-1 cells assessed as inhibition of cell growth incubated for 48 hrs by MTT assay. The format is functional, cell-based. The following applies: LAN1, 48 h.
The subject of assay [16] is IMR-32. In words: Antiproliferative activity against human IMR-32 cells assessed as inhibition of cell growth incubated for 48 hrs by MTT assay. The format is functional, cell-based. The note with it: IMR-32, 48 h.
Assay [17] is described as follows: Antiproliferative activity against human NB-39-nu cells assessed as inhibition of cell growth incubated for 48 hrs by MTT assay. The format is functional, cell-based.
Assay [18] relates to SK-N-SH. As to the kind of experiment: Antiproliferative activity against human SK-N-SH cells assessed as inhibition of cell growth incubated for 48 hrs by MTT assay. The format is functional, cell-based.
Assay [19] relates to NCI-H460. As to the kind of experiment: Antiproliferative activity against human NCI-H460 cells assessed as inhibition of cell growth incubated for 24 hrs by MTT assay. The assay is classed as functional, cell-based. The note with it: NCI-H460, 24 h.
Assay [20] concerns A2780. As to the kind of experiment: Antiproliferative activity against human A2780 cells assessed as inhibition of cell growth incubated for 24 hrs by MTT assay. The format is functional, cell-based. The following applies: A2780, 24 h.
Assay [21] deals with MDA-MB-231. In words: Antiproliferative activity against human MDA-MB-231 cells assessed as inhibition of cell growth incubated for 24 hrs by MTT assay. The format is functional, cell-based. The following applies: MDA-MB-231, 24 h.
Assay [22] relates to MCF7. As to the kind of experiment: Cytotoxicity against human MCF7 cells assessed as inhibition of cell growth incubated for 48 hrs by MTT assay. The note with it: MCF7, 48 h. The assay is classed as functional, cell-based.
The subject of assay [23] is A549. As to the kind of experiment: Cytotoxicity against human A549 cells assessed as inhibition of cell growth incubated for 48 hrs by MTT assay. The note with it: A549, 48 h. The format is functional, cell-based.
Assay [24] deals with HeLa. In words: Cytotoxicity against human HeLa cells assessed as inhibition of cell growth incubated for 48 hrs by MTT assay. The format is functional, cell-based.
For assay [25], the system named is B16. As to the kind of experiment: Cytotoxicity against mouse B16 cells assessed as inhibition of cell growth incubated for 48 hrs by MTT assay. The note with it: B16, 48 h. The assay is classed as functional, cell-based.
Assay [26] relates to DU-145. In words: Cytotoxicity against human DU-145 cells assessed as inhibition of cell growth incubated for 48 hrs by MTT assay. The format is functional, cell-based. The following applies: DU-145, 48 h.
Assay [27] relates to RD. As to the kind of experiment: Antiproliferative activity against human RD cells assessed as inhibition of cell growth incubated for 24 hrs by celltiter blue reagent based fluorimetric analysis. The assay is classed as functional. (Resazurin is reduced to fluorescent resorufin, in cell work by metabolically active cells.)
Assay [28] has as its system A549. As to the kind of experiment: Antiproliferative activity against human A549 cells assessed as inhibition of cell growth incubated for 24 hrs by celltiter blue reagent based fluorimetric analysis. The assay is classed as functional. The following applies: A549, 24 h.
For assay [29], the system named is DU-145. As to the kind of experiment: Antiproliferative activity against human DU-145 cells assessed as inhibition of cell growth incubated for 24 hrs by celltiter blue reagent based fluorimetric analysis. The format is functional. The note with it: DU-145, 24 h.
The test system of assay [30] is HeLa. In words: Antiproliferative activity against human HeLa cells assessed as inhibition of cell growth incubated for 24 hrs by sulforhodamine B assay. The format is functional, cell-based.

On to `O=C1C(Cl)=C(NCCN2CCOCC2)C(=O)c2ccccc21`, for which the IC50 in [1] was determined as 10.3 µM; in [2], 14.5 µM; in assay [3] it was 4.39 µM.
For `Cc1ccc(NC2=C(Cl)C(=O)c3ccccc3C2=O)cc1`, the values for the IC50 in assay [4] and in assay [5] were 10.7 µM and 4.3 µM, respectively.
`O=C1C(Sc2ccc3ccccc3c2)=C(Sc2ccc3ccccc3c2)C(=O)c2ccccc21`: the GI50 is 7.75 µM in assay [6], 9.92 µM in [7], 7.21 µM in assay [8] and 8.26 µM in assay [9].
For `CCOC(=O)c1cn(C2=CC(=O)c3ccccc3C2=O)nn1`, the IC50 in assay [10] turned out to be 3.2 µM.
Consider `CCCC[S+]([O-])C1=CC(=O)c2ccccc2C1=O` (stereo not given), for which the IC50 in assay [11] worked out at 2.08 µM.
In the case of `CCCCCCCC[S+]([O-])C1=CC(=O)c2ccccc2C1=O` (stereo not given), the IC50 in assay [12] amounted to 8.56 µM; in [13] it was 0.96 µM; in assay [14], 1.96 µM.
Turning to `COCCSC1=C(C)C(=O)c2ccccc2C1=O`, the IC50 in [15] was 1.55 µM; in [16], 2.43 µM; in assay [17], 10.7 µM; in [18], 3.45 µM.
For the compound `O=C1C=C(SCCO)C(=O)c2ccccc21`, the IC50 is 4.24 µM in [19], 3.69 µM in assay [20] and 16 µM in assay [21].
Turning to `CCc1ccc(-c2cn(CCNC3=C(C)C(=O)c4ccccc4C3=O)nn2)cc1`, the IC50 in assay [22] was found to be 8.73 µM; in assay [23], 9.19 µM; in assay [24] it was 26.2 µM; in assay [25] it was 20.2 µM; in assay [26] it was 8.02 µM.
As to `O=C1C=C(CCCCCCCCCC[P+](c2ccccc2)(c2ccccc2)c2ccccc2)C(=O)c2ccccc21`, the IC50 in assay [27] was found to be 0.02 µM; in [28], 0.5 µM; in [29], 0.4 µM.
For `O=C1C(Cl)=C(Nc2ccc(O)cc2)C(=O)c2ccccc21`, in assay [30], the IC50 is 3.2 µM.

For orientation: IC50 means the midpoint of a concentration-inhibition curve. One may read the GI50 as the concentration that inhibits growth by half.
